{
  "source": "patent US9695155B2",
  "about": "“Herbicidal substituted pyrimidinyloxy benzene compounds” (E. I. DU PONT DE NEMOURS AND COMPANY, priority 2013, dated 2017)",
  "key": {"wheat": {"test_system": "wheat", "test": "Test A preemergence", "assay_type": "in vivo, Triticum aestivum", "procedure,_shortened": "(§1)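 Compounds in non-phytotoxic solvent with surfactant applied as soil spray preemergence, or postemergence to plants 2-10 cm at one- to two-leaf stage, in loam/sand. After approximately 10 days in greenhouse, injury rated visually versus untreated controls, 0 (no effect) to 100 (complete control).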"}, "oilseed rape": {"test_system": "oilseed rape", "test": "Test C postemergence", "assay_type": "in vivo, Brassica napus", "procedure,_shortened": "(§2)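 Visual injury score versus untreated controls, 0 = no effect, 100 = complete control, taken 13 to 15 days after treatment in the greenhouse. Pre-emergence pots held loam/sand; post-emergence plants grew in sphagnum peat/vermiculite mix and were sprayed at the 1- to 4-leaf stage.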"}, "barnyardgrass [1]": {"test_system": "barnyardgrass", "test": "Test B flooded paddy test", "assay_type": "in vivo, Echinochloa crus-galli", "conditions": "Echinochloa crus-galli; Flood, 250 g ai/ha; 0 to 100 scale where 0 is no effect and 100 is complete control; read-out: Plant response rating, Barnyardgrass", "procedure,_shortened": "(§3)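 2-leaf stage plants; pots flooded to 3 cm, compound added to paddy water, depth maintained. Greenhouse 13–15 d. Visual rating vs untreated controls, 0 (no effect) to 100 (complete control); dash = no result.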"}, "barnyardgrass [2]": {"test_system": "barnyardgrass", "test": "Test C postemergence", "assay_type": "in vivo, Echinochloa crus-galli", "conditions": "Echinochloa crus-galli, post-emergence", "procedure,_shortened": "as §2"}, "sedge, umbrella": {"test_system": "sedge, umbrella", "test": "Test B flooded paddy test", "assay_type": "in vivo, Cyperus difformis", "conditions": "Cyperus difformis, Flood, 250 g ai/ha; 0 to 100 scale where 0 is no effect and 100 is complete control; read-out: Plant response rating, Sedge, Umbrella", "procedure,_shortened": "as §3"}, "soybean": {"test_system": "soybean", "test": "Test C postemergence", "assay_type": "in vivo, Glycine max", "procedure,_shortened": "as §2"}, "waterhemp": {"test_system": "waterhemp", "test": "Test C postemergence", "assay_type": "in vivo, Amaranthus rudis", "procedure,_shortened": "as §2"}, "velvetleaf [3]": {"test_system": "velvetleaf", "test": "Test C postemergence", "assay_type": "in vivo, Abutilon theophrasti", "procedure,_shortened": "as §2"}, "velvetleaf [4]": {"test_system": "velvetleaf", "test": "Test A postemergence", "assay_type": "in vivo, Abutilon theophrasti", "conditions": "0 to 100 scale where 0 is no effect and 100 is complete control", "procedure,_shortened": "as §1"}, "large (Lg) crabgrass": {"test_system": "large (Lg) crabgrass", "test": "Test C postemergence", "assay_type": "in vivo, Digitaria sanguinalis", "conditions": "Digitaria sanguinalis, post-emergence", "procedure,_shortened": "as §2"}, "morningglory": {"test_system": "morningglory", "test": "Test A preemergence", "assay_type": "in vivo, Ipomoea spp.", "procedure,_shortened": "as §1"}, "[5]": {"conditions": "31 g ai/ha, postemergence, visual rating, scale 0 to 100 (0 no effect, 100 complete control), 13 to 15 days"}},
  "data": [
    {"smiles": "Fc1cccc(Oc2ncc(Cl)cn2)c1-n1cc(Br)cn1", "note": "[Compound 178, 2-[2-(4-bromo-1H-pyrazol-1-yl)-3-fluorophenoxy]-5-chloropyrimidine]", "values": [
      {"measurement": "Wheat plant response rating (0 to 100 scale)", "setting": "wheat; 125 g ai/ha", "result": 0},
      {"measurement": "plant injury at 500 g/ha", "setting": "wheat; Triticum aestivum, pre-emergence, 240 h, 500 g ai/ha, 0 to 100 scale where 0 is no effect and 100 is complete control, read-out: Wheat plant response rating", "result": 40, "unit": "%"},
      {"measurement": "Oilseed Rape plant response rating", "setting": "oilseed rape; [5]", "result": 85},
      {"measurement": "plant injury at 16 g/ha", "setting": "oilseed rape; Brassica napus, post-emergence, 16 g ai/ha, postemergence, 0 is no effect, 100 is complete control, read-out: Plant response rating (0 to 100), Oilseed Rape", "result": 70, "unit": "%"},
      {"measurement": "plant injury at 125 g/ha", "setting": "oilseed rape; Brassica napus, post-emergence, 125 g ai/ha, postemergence, visual rating, scale 0 to 100 (0 no effect, 100 complete control), read-out: Plant response rating, Oilseed Rape", "result": 98, "unit": "%"},
      {"measurement": "plant injury at 62 g/ha", "setting": "oilseed rape; Brassica napus, post-emergence, Postemergence, 62 g ai/ha, scale 0 to 100 (0 no effect, 100 complete control), read-out: Plant response rating, Oilseed Rape", "result": 90, "unit": "%"},
      {"measurement": "pest or weed control at 250 g/ha", "setting": "barnyardgrass [1]", "result": 0, "unit": "%"},
      {"measurement": "pest or weed control at 16 g/ha", "setting": "barnyardgrass [2]; 16 g ai/ha, postemergence, 0 is no effect, 100 is complete control, read-out: Plant response rating (0 to 100), Barnyardgrass", "result": 5, "unit": "%"},
      {"measurement": "pest or weed control at 31 g/ha", "setting": "barnyardgrass [2]; 31 g ai/ha, postemergence, visual rating, scale 0 to 100 (0 no effect, 100 complete control), 13 to 15 days, read-out: Barnyardgrass plant response rating", "result": 5, "unit": "%"},
      {"measurement": "pest or weed control at 125 g/ha", "setting": "barnyardgrass [2]; 125 g ai/ha, postemergence, visual rating, scale 0 to 100 (0 no effect, 100 complete control), read-out: Plant response rating, Barnyardgrass", "result": 10, "unit": "%"},
      {"measurement": "pest or weed control at 62 g/ha", "setting": "barnyardgrass [2]; Postemergence, 62 g ai/ha, scale 0 to 100 (0 no effect, 100 complete control), read-out: Plant response rating, Barnyardgrass", "result": 5, "unit": "%"},
      {"measurement": "pest or weed control at 250 g/ha", "setting": "sedge, umbrella", "result": 0, "unit": "%"},
      {"measurement": "Soybean plant response rating", "setting": "soybean; [5]", "result": 70},
      {"measurement": "Soybean plant response rating (crop injury, 0-100 scale) at 16 g/ha", "setting": "soybean; Glycine max, post-emergence, 16 g ai/ha, postemergence, 0 is no effect, 100 is complete control", "result": 50, "unit": "%"},
      {"measurement": "Soybean plant response rating (crop injury, 0-100 scale) at 125 g/ha", "setting": "soybean; Glycine max, post-emergence, 125 g ai/ha, postemergence, visual rating, scale 0 to 100 (0 no effect, 100 complete control), read-out: Plant response rating, Soybean", "result": 95, "unit": "%"},
      {"measurement": "Soybean plant response rating (crop injury, 0-100 scale) at 62 g/ha", "setting": "soybean; Glycine max, post-emergence, Postemergence, 62 g ai/ha, scale 0 to 100 (0 no effect, 100 complete control)", "result": 65, "unit": "%"},
      {"measurement": "Waterhemp plant response rating", "setting": "waterhemp; [5]", "result": 90},
      {"measurement": "pest or weed control at 16 g/ha", "setting": "waterhemp; Amaranthus tuberculatus, post-emergence, 16 g ai/ha, postemergence, 0 is no effect, 100 is complete control, read-out: Plant response rating (0 to 100), Waterhemp", "result": 80, "unit": "%"},
      {"measurement": "pest or weed control at 125 g/ha", "setting": "waterhemp; Amaranthus tuberculatus, post-emergence, 125 g ai/ha, postemergence, visual rating, scale 0 to 100 (0 no effect, 100 complete control), read-out: Plant response rating, Waterhemp", "result": 100, "unit": "%"},
      {"measurement": "pest or weed control at 62 g/ha", "setting": "waterhemp; Amaranthus tuberculatus, post-emergence, Postemergence, 62 g ai/ha, scale 0 to 100 (0 no effect, 100 complete control), read-out: Plant response rating, Waterhemp", "result": 90, "unit": "%"},
      {"measurement": "Velvetleaf plant response rating", "setting": "velvetleaf [3]; [5]", "result": 70},
      {"measurement": "pest or weed control at 16 g/ha", "setting": "velvetleaf [3]; Abutilon theophrasti, post-emergence, 16 g ai/ha, postemergence, 0 is no effect, 100 is complete control, read-out: Plant response rating (0 to 100), Velvetleaf", "result": 50, "unit": "%"},
      {"measurement": "pest or weed control at 125 g/ha", "setting": "velvetleaf [3]; Abutilon theophrasti, post-emergence, 125 g ai/ha, postemergence, visual rating, scale 0 to 100 (0 no effect, 100 complete control), read-out: Plant response rating, Velvetleaf", "result": 100, "unit": "%"},
      {"measurement": "pest or weed control at 62 g/ha", "setting": "velvetleaf [3]; Abutilon theophrasti, post-emergence, Postemergence, 62 g ai/ha, scale 0 to 100 (0 no effect, 100 complete control), read-out: Plant response rating, Velvetleaf", "result": 85, "unit": "%"},
      {"measurement": "Velvetleaf plant response rating", "setting": "velvetleaf [4]; 125 g ai/ha", "result": 100},
      {"measurement": "pest or weed control at 500 g/ha", "setting": "velvetleaf [4]; Abutilon theophrasti, post-emergence, 240 h, 500 g ai/ha, read-out: Plant response rating, Velvetleaf", "result": 100, "unit": "%"},
      {"measurement": "pest or weed control at 16 g/ha", "setting": "large (Lg) crabgrass; 16 g ai/ha, postemergence, 0 is no effect, 100 is complete control, read-out: Plant response rating (0 to 100), Crabgrass, Large", "result": 5, "unit": "%"},
      {"measurement": "pest or weed control at 31 g/ha", "setting": "large (Lg) crabgrass; 31 g ai/ha, postemergence, visual rating, scale 0 to 100 (0 no effect, 100 complete control), 13 to 15 days, read-out: Crabgrass, Large plant response rating", "result": 10, "unit": "%"},
      {"measurement": "pest or weed control at 125 g/ha", "setting": "large (Lg) crabgrass; 125 g ai/ha, postemergence, visual rating, scale 0 to 100 (0 no effect, 100 complete control), read-out: Plant response rating, Crabgrass, Large", "result": 10, "unit": "%"},
      {"measurement": "pest or weed control at 62 g/ha", "setting": "large (Lg) crabgrass; Postemergence, 62 g ai/ha, scale 0 to 100 (0 no effect, 100 complete control), read-out: Plant response rating, Crabgrass, Large", "result": 5, "unit": "%"},
      {"measurement": "Morningglory plant response rating (0 to 100 scale)", "setting": "morningglory; 125 g ai/ha", "result": 10},
      {"measurement": "pest or weed control at 500 g/ha", "setting": "morningglory; Ipomoea, pre-emergence, 240 h, 500 g ai/ha, 0 to 100 scale where 0 is no effect and 100 is complete control, read-out: Morningglory plant response rating", "result": 90, "unit": "%"}
    ]}
  ]
}
